Assay results as given in ChEMBL document CHEMBL4270652, “Design, synthesis, and biological activity of substituted 2-amino-5-oxo-5H-chromeno[2,3-b]pyridine-3-carboxylic acid derivatives as inhibitors of the inflammatory kinases TBK1 and IKKε for the treatment of obesity” (Bioorg Med Chem, 2018).
In brackets after ≈: the same amount, converted by molar mass. Activity calls are given as the source filed them. No cut-off for these calls is given here.

What was measured:
physchem = details: PBS, pH 7.4
Description: Thermodynamic aqueous solubility in PBS of pH 7.4 after overnight incubation by chemiluminescent nitrogen detection

Mus musculus [1] = assay: Increase in serum IL6 levels in C57BL/6 obese mouse model at 25 mg/kg administered via oral gavage measured 6 hrs post treatment by ELISA; format: functional, organism-based
Mus musculus [2] = assay: Antidiabetic activity in C57BL/6 obese mouse model assessed as reduction in blood glucose level at 25 mg/kg administered daily via oral gavage measured post 3 weeks of treatment by glucose tolerance test; format: functional, organism-based
Mus musculus [3] = assay: Induction of insulin-induced hypoglycemia in C57BL/6 obese mouse model at 25 mg/kg administered daily via oral gavage measured post 4 weeks of treatment by insulin tolerance test; format: functional, organism-based
Mus musculus [4] = assay: Antiobesity activity in C57BL/6 obese mouse model assessed as body weight loss at 25 mg/kg administered daily via oral gavage measured post 4 weeks of treatment; format: functional, organism-based

| solubility thermodynamic (physchem) | SMILES | other results |
| --- | --- | --- |
| 229 µM (≈ 68.4 µg/mL) | CC(C)c1cccc2oc3nc(N)c(C(=O)O)cc3c(=O)c12 | – |
| 61.3 µM (≈ 21.8 µg/mL) | Nc1nc2oc3ccc(C4CCSCC4)cc3c(=O)c2cc1C(=O)O | – |
| 119 µM (≈ 38.8 µg/mL) | CC(C)CCc1ccc2oc3nc(N)c(C(=O)O)cc3c(=O)c2c1 | – |
| 13.7 µM (≈ 4.33 µg/mL) | CC(C)c1cc2c(=O)c3cc(C(=O)O)c(N)nc3oc2cc1F | – |
| 179 µM (≈ 55.8 µg/mL) | CC(C)Cc1ccc2oc3nc(N)c(C(=O)O)cc3c(=O)c2c1 | – |
| 76.8 µM (≈ 23 µg/mL) | CN(C)c1ccc2oc3nc(N)c(C(=O)O)cc3c(=O)c2c1 | – |
| 121 µM (≈ 46 µg/mL) | CC(=O)N1CCC(c2ccc3oc4nc(N)c(C(=O)O)cc4c(=O)c3c2)CC1 | – |
| 77.9 µM (≈ 23.3 µg/mL) | CC(C)c1cc2c(=O)c3cc(C(=O)O)c(N)nc3oc2cn1 | – |
| 94.4 µM (≈ 31.9 µg/mL) | Nc1nc2oc3ccc(C4CCCCC4)cc3c(=O)c2cc1C(=O)O | Activity (Mus musculus [1]): Active; Activity (Mus musculus [2]): Active; Activity (Mus musculus [3]): Active; Activity (Mus musculus [4]): Active |
| < 1.1 µM | Nc1nc2oc3ccc(C4CCC(=O)CC4)cc3c(=O)c2cc1C(=O)O | – |
| – | CC(C)c1ccc2oc3nc(N)c(C(=O)O)cc3c(=O)c2c1 | Activity (Mus musculus [1]): Active; Activity (Mus musculus [2]): Active; Activity (Mus musculus [3]): Active |
| 19.1 µM (≈ 5.7 µg/mL) | CC(C)c1ccc2c(=O)c3cc(C(=O)O)c(N)nc3oc2c1 | – |
